pEC50: −log10 of the molar value.
Biological target: T1, human mAChR M1 (Homo sapiens, UniProt P11229)
T1 sequence (P11229 1-460): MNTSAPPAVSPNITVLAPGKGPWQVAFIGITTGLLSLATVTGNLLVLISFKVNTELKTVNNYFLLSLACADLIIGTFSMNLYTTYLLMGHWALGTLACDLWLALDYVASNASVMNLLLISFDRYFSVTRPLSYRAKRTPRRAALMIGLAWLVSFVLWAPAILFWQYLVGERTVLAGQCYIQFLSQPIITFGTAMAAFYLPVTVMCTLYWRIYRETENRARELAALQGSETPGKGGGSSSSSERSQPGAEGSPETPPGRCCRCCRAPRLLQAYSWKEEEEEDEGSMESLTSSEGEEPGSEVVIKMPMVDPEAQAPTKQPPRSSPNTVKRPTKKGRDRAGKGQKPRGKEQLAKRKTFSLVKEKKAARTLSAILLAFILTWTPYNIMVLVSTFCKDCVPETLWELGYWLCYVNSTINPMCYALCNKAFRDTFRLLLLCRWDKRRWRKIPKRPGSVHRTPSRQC
Assay: mAChR M1 cell-based functional assay: calcium mobilization, positive allosteric modulator mode (increase in EC20 acetylcholine response)
Details: Table 2, human M1; for pEC50: read-out: Human M1 EC50; for Emax: read-out: Human M1 Emax (%)
Procedure, shortened: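 Calcium-flux assay in CHO-K1 cells stably expressing human M1, loaded with Fluo-4 AM (50 min, 37 °C) and read at 1 Hz. Compound (11-point, 1:3 series) was added at 4 s, EC20 acetylcholine at 144 s and EC80 at 230 s. PAM activity is the concentration-dependent rise in the EC20 response, fitted with a four-parameter logistic.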

| Compound | pEC50 | Emax |
| --- | --- | --- |
| Cc1csc2c(Cc3ccc(-n4cccn4)cc3)cc(C(=O)N[C@@H]3CCCC[C@H]3O)nc12 [Compound 116, N-[(1R,2R)-2-hydroxycyclohexyl]-3-methyl-7-[(4-pyrazol-1-ylphenyl)methyl]thieno[3,2-b]pyridine-5-carboxamide] | 6.49 | 78.7% |
| Cc1csc2c(Cc3ccc(-n4cccn4)cc3)cc(C(=O)N[C@@H]3CCOC[C@H]3O)nc12 [Compound 117, N-[(3S,4R)-3-hydroxytetrahydropyran-4-yl]-3-methyl-7-[(4-pyrazol-1-ylphenyl)methyl]thieno[3,2-b]pyridine-5-carboxamide] | 7.08 | 76.6% |
| Cc1csc2c(Cc3ccc(-n4cccn4)cc3)cc(C(=O)N[C@@H]3COCC[C@H]3O)nc12 [Compound 118] | 6.87 | 83.7% |
| CO[C@@H]1CCCC[C@H]1NC(=O)c1cc(Cc2ccc(-n3cccn3)cc2)c2scc(C)c2n1 [Compound 119, N-[(1R,2R)-2-methoxycyclohexyl]-3-methyl-7-[(4-pyrazol-1-ylphenyl)methyl]thieno[3,2-b]pyridine-5-carboxamide] | 5.64 | 83.3% |
| Cc1csc2c(Cc3ccc(-n4cccn4)cc3)cc(C(=O)N[C@@H]3CCCCC[C@H]3O)nc12 [Compound 120, N-[(1R,2R)-2-hydroxycycloheptyl]-3-methyl-7-[(4-pyrazol-1-ylphenyl)methyl]thieno[3,2-b]pyridine-5-carboxamide] | 5.88 | 75.3% |
| Cc1csc2c(Cc3ccc(-n4cccn4)cc3)cc(C(=O)N(C)C3CCOCC3)nc12 [Compound 121, N,3-dimethyl-7-[(4-pyrazol-1-ylphenyl)methyl]-N-tetrahydropyran-4-yl-thieno[3,2-b]pyridine-5-carboxamide] | 5.17 | 54.9% |
| Cc1csc2c(Cc3ccc(-n4cccn4)cc3)cc(C(=O)NC3CCCNC3=O)nc12 (centres unmarked) [Compound 122, 3-methyl-N-(2-oxo-3-piperidyl)-7-[(4-pyrazol-1-ylphenyl)methyl]thieno[3,2-b]pyridine-5-carboxamide] | 6.06 | 80.4% |
| Cc1csc2c(Cc3ccc(-n4cccn4)cc3)cc(C(=O)NC3CCCCNC3=O)nc12 (centres unmarked) [Compound 123, 3-methyl-N-(2-oxoazepan-3-yl)-7-[(4-pyrazol-1-ylphenyl)methyl]thieno[3,2-b]pyridine-5-carboxamide] | 6.36 | 28.8% |
| Cc1csc2c(Cc3ccc(-n4cccn4)cc3)cc(C(=O)NC3CCN(C)CC3)nc12 [Compound 124, 3-methyl-N-(1-methyl-4-piperidyl)-7-[(4-pyrazol-1-ylphenyl)methyl]thieno[3,2-b]pyridine-5-carboxamide] | 5.61 | 64.4% |
| Cc1ncc(Cc2cc(C(=O)N[C@@H]3CCC[C@H]3O)nc3ccsc23)cn1 [Compound 125] | < 5.00 | 59.1% |
| Cc1ncc(Cc2cc(C(=O)NC3CCOCC3)nc3ccsc23)cn1 [Compound 126, 7-[(2-methylpyrimidin-5-yl)methyl]-N-tetrahydropyran-4-yl-thieno[3,2-b]pyridine-5-carboxamide] | < 5.00 | 27.4% |
| Cc1ncc(Cc2cc(C(=O)N[C@@H]3CCCC[C@H]3O)nc3ccsc23)cn1 [Compound 127, N-[(1R,2R)-2-hydroxycyclohexyl]-7-[(2-methylpyrimidin-5-yl)methyl]thieno[3,2-b]pyridine-5-carboxamide] | < 5.00 | 79.2% |
| Cc1ncc(Cc2cc(C(=O)N[C@@H]3CCOC[C@H]3O)nc3ccsc23)cn1 [Compound 128, N-[(3S,4R)-3-hydroxytetrahydropyran-4-yl]-7-[(2-methylpyrimidin-5-yl)methyl]thieno[3,2-b]pyridine-5-carboxamide] | < 5.00 | 75% |
| Cc1ncc(Cc2cc(C(=O)N[C@@H]3COCC[C@H]3O)nc3ccsc23)cn1 [Compound 129, N-[(3R,4R)-4-hydroxytetrahydropyran-3-yl]-7-[(2-methylpyrimidin-5-yl)methyl]thieno[3,2-b]pyridine-5-carboxamide] | < 5.00 | 51.5% |
| CO[C@@H]1CCCC[C@H]1NC(=O)c1cc(Cc2cnc(C)nc2)c2sccc2n1 [Compound 130, N-[(1R,2R)-2-methoxycyclohexyl]-7-[(2-methylpyrimidin-5-yl)methyl]thieno[3,2-b]pyridine-5-carboxamide] | < 5.00 | 20.1% |
| Cc1ncc(Cc2cc(C(=O)N[C@@H]3CCCCC[C@H]3O)nc3ccsc23)cn1 [Compound 131, N-[(1R,2R)-2-hydroxycycloheptyl]-7-[(2-methylpyrimidin-5-yl)methyl]thieno[3,2-b]pyridine-5-carboxamide] | 5.33 | 83.4% |

| Compound | pEC50 | Emax |
| --- | --- | --- |
| Cc1ncc(Cc2cc(C(=O)N[C@H]3CC[C@@H]3O)nc3ccsc23)s1 [Compound 132, N-[(1S,2S)-2-hydroxycyclobutyl]-7-[(2-methylthiazol-5-yl)methyl]thieno[3,2-b]pyridine-5-carboxamide] | < 5.00 | 54.9% |
| Cc1ncc(Cc2cc(C(=O)N[C@@H]3CCC[C@H]3O)nc3ccsc23)s1 [Compound 133, N-[(1R,2R)-2-hydroxycyclopentyl]-7-[(2-methylthiazol-5-yl)methyl]thieno[3,2-b]pyridine-5-carboxamide] | 5.44 | 77.9% |
| Cc1ncc(Cc2cc(C(=O)NC3CCCCC3)nc3ccsc23)s1 [Compound 134, N-cyclohexyl-7-[(2-methylthiazol-5-yl)methyl]thieno[3,2-b]pyridine-5-carboxamide] | 5.49 | 37.6% |
| Cc1ncc(Cc2cc(C(=O)NC3CCOCC3)nc3ccsc23)s1 [Compound 135, 7-[(2-methylthiazol-5-yl)methyl]-N-tetrahydropyran-4-yl-thieno[3,2-b]pyridine-5-carboxamide] | < 5.00 | 60.9% |
| Cc1ncc(Cc2cc(C(=O)N[C@@H]3CCCC[C@H]3O)nc3ccsc23)s1 [Compound 136, N-[(1R,2R)-2-hydroxycyclohexyl]-7-[(2-methylthiazol-5-yl)methyl]thieno[3,2-b]pyridine-5-carboxamide] | 6.44 | 81% |
| Cc1ncc(Cc2cc(C(=O)N[C@@H]3CCOC[C@H]3O)nc3ccsc23)s1 [Compound 137, N-[(3S,4R)-3-hydroxytetrahydropyran-4-yl]-7-[(2-methylthiazol-5-yl)methyl]thieno[3,2-b]pyridine-5-carboxamide] | 6.26 | 80.3% |
| Cc1ncc(Cc2cc(C(=O)N[C@@H]3COCC[C@H]3O)nc3ccsc23)s1 [Compound 138, N-[(3R,4R)-4-hydroxytetrahydropyran-3-yl]-7-[(2-methylthiazol-5-yl)methyl]thieno[3,2-b]pyridine-5-carboxamide] | < 5.00 | 74.3% |
| CO[C@@H]1CCCC[C@H]1NC(=O)c1cc(Cc2cnc(C)s2)c2sccc2n1 [Compound 139, N-[(1R,2R)-2-methoxycyclohexyl]-7-[(2-methylthiazol-5-yl)methyl]thieno[3,2-b]pyridine-5-carboxamide] | < 5.00 | 51.1% |
| Cc1ncc(Cc2cc(C(=O)N[C@@H]3CCCCC[C@H]3O)nc3ccsc23)s1 [Compound 140, N-[(1R,2R)-2-hydroxycycloheptyl]-7-[(2-methylthiazol-5-yl)methyl]thieno[3,2-b]pyridine-5-carboxamide] | 6.51 | 82.8% |
| Cc1ncc(Cc2cc(C(=O)NC34CC5CC(CC(O)(C5)C3)C4)nc3ccsc23)s1 [Compound 141, N-(3-hydroxy-1-adamantyl)-7-[(2-methylthiazol-5-yl]methyl]thieno[3,2-b]pyridine-5-carboxamide] | < 5.00 | 36.9% |
| Cc1ncc(Cc2cc(C(=O)NC3C4CC5CC3CC(O)(C5)C4)nc3ccsc23)s1 [Compound 142, N-(1S)-5-hydroxy-2-adamantyl]-7-[(2-methylthiazol-5-yl)methyl]thieno[3,2-b]pyridine-5-carboxamide] | 5.31 | 23.9% |
| Cc1ncc(Cc2cc(C(=O)NC3CCCNC3=O)nc3ccsc23)s1 (centres unmarked) [Compound 143, 7-[(2-methylthiazol-5-yl)methyl]-N-(2-oxo-3-piperidyl)thieno[3,2-b]pyridine-5-carboxamide] | < 5.00 | 50.5% |
| Cc1ncc(Cc2cc(C(=O)NC3CCCCNC3=O)nc3ccsc23)s1 (centres unmarked) [Compound 144, 7-[(2-methylthiazol-5-yl)methyl]-N-(2-oxoazepan-3-yl)thieno[3,2-b]pyridine-5-carboxamide] | < 5.00 | 50.7% |
| Cc1ccc(C(=O)c2cc(C(=O)N[C@@H]3CCCC[C@H]3O)nc3ccsc23)cn1 [Compound 145, N-[(1R,2R)-2-hydroxycyclohexyl]-7-(6-methylpyridine-3-carbonyl)thieno[3,2-b]pyridine-5-carboxamide] | < 5.00 | 41.6% |
| Cc1nc(-c2ccc(Cc3cc(C(=O)N[C@H]4CC[C@@H]4O)nc4ccsc34)cc2)co1 [Compound 146, N-[(1S,2S)-2-hydroxycyclobutyl]-7-[[4-(2-methyloxazol-4-yl)phenyl]methyl]thieno[3,2-b]pyridine-5-carboxamide] | 6.47 | 90.7% |
